The values that follow come from ChEMBL document CHEMBL5143532, “Discovery of GCC5694A: A potent and selective sodium glucose co-transporter 2 inhibitor for the treatment of type 2 diabetes” (Bioorg Med Chem Lett, 2022).

As usually defined, the Cmax is the highest concentration seen after dosing. One may read the AUC(0-inf) as total exposure, with the tail of the curve extrapolated. The Tmax is the time at which the peak concentration occurs. A word on the bioavailability: it is dose-corrected exposure relative to a reference, in per cent. Lower therefore signals little systemic uptake. Broadly, the IC50 is the concentration needed to halve the response being measured. Lower therefore signals higher potency.

Data set [1] in a line: Cmax in Sprague-Dawley rat at 1 mg/kg, iv. The format is ADME, organism-based. Also on record: dose 1 mg/kg, route iv. As to conditions: in vivo.
A short description of data set [2]: AUCinfinity in Sprague-Dawley rat at 1 mg/kg, iv. The data set is classed as ADME, organism-based. Set-up: time infinity, dose 1 mg/kg, route iv. To be noted: in vivo.
Data set [3] can be described thus: Terminal elimination half life in Sprague-Dawley rat at 1 mg/kg, iv. The data set is classed as ADME, organism-based. As to conditions: in vivo, read-out: beta t1/2 (converted).
A short description of data set [4]: Tmax in Sprague-Dawley rat at 1 mg/kg, iv. The data set is classed as ADME, organism-based. To be noted: in vivo.
Data set [5] can be described thus: AUCinfinity in Sprague-Dawley rat at 5 mg/kg, po. Also on record: time infinity, dose 5 mg/kg, route po. The data set is classed as ADME, organism-based. As to conditions: in vivo.
The nature of data set [6]: Tmax in Sprague-Dawley rat at 5 mg/kg, po. The format is ADME, organism-based. To be noted: in vivo.
Data set [7] can be described thus: Oral bioavailability in Sprague-Dawley rat at 5 mg/kg. The data set is classed as ADME, organism-based. To be noted: in vivo.
The target in data set [8] is T1, Sodium/glucose cotransporter 1 (Homo sapiens, UniProt P13866).
T1 sequence (P13866 whole entry): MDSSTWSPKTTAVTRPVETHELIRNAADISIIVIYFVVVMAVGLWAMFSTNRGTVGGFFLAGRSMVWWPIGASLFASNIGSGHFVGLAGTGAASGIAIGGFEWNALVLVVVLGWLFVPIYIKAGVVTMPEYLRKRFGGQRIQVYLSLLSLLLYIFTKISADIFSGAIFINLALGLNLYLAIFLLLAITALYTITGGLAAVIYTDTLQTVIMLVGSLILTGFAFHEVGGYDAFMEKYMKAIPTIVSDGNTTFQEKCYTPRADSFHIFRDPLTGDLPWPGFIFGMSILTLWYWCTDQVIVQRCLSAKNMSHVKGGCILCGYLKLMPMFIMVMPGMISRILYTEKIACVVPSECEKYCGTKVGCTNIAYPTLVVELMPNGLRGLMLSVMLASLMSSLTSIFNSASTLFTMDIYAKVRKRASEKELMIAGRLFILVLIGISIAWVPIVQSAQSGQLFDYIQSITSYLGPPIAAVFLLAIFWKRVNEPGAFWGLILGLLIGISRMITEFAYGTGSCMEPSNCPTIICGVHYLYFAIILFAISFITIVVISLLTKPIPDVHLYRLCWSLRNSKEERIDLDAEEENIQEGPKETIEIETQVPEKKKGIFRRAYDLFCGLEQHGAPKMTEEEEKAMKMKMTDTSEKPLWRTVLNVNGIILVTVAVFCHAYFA
Nature of the data set: Inhibition of human SGLT1 expressed in CHO cells by methyl-alpha-D-glucopyranoside assay. The format is cell-based.

The nature of data set [9]: Selectivity index, ratio of IC50 for human SGLT1 expressed in CHO cells to IC50 for human SGLT2 expressed in CHO cells. The data set is classed as cell-based.
Data set [10] can be described thus: Metabolic stability in mouse by LC-MS/MS analysis. The data set is classed as ADME. As to conditions: read-out: Stability.
Data set [11] relates to Rattus norvegicus. Nature of the data set: Increase in urinary glucose excretion in oral-dosed normal Sprague-Dawley rat. As to conditions: Urine, dose 0.1-1 mg/kg. The data set is classed as functional, organism-based.
In data set [12] the test system is Rattus norvegicus. In words: Antidiabetic activity in STZ-induced rat model of type 1 diabetes assessed as decrease in hemoglobin A1c level at 0.05 to 0.5 mg/kg for 5 weeks. The format is functional, organism-based. To be noted: dose 0.05-0.5 mg/kg.
The subject of data set [13] is Rattus norvegicus. Nature of the data set: Antidiabetic activity in STZ-induced rat model of type 1 diabetes assessed as decrease in blood glucose level at 0.05 to 0.5 mg/kg for 5 weeks. To be noted: dose 0.05-0.5 mg/kg. The format is functional, organism-based.
Data set [14] relates to Mus musculus. In words: Antidiabetic activity in type 2 diabetic db/db mouse assessed as decrease in hemoglobin A1c level at 0.05 to 0.5 mg/kg for 5 weeks. The format is functional, organism-based. As to conditions: dose 0.05-0.5 mg/kg.
Data set [15] relates to Mus musculus. In words: Antidiabetic activity in type 2 diabetic db/db mouse assessed as decrease in blood glucose level at 0.05 to 0.5 mg/kg for 5 weeks. As to conditions: dose 0.05-0.5 mg/kg. The format is functional, organism-based.
Data set [16] in a line: Cmax in Sprague-Dawley rat at 5 mg/kg, po. Also on record: dose 5 mg/kg, route po. As to conditions: in vivo. The format is ADME, organism-based.
A short description of data set [17]: Terminal elimination half life in Sprague-Dawley rat at 5 mg/kg, po. The format is ADME, organism-based. To be noted: in vivo, read-out: beta t1/2 (converted).
Data set [18] has as its target T2, Sodium/glucose cotransporter 2 (Homo sapiens, UniProt P31639).
T2 sequence (P31639 whole entry): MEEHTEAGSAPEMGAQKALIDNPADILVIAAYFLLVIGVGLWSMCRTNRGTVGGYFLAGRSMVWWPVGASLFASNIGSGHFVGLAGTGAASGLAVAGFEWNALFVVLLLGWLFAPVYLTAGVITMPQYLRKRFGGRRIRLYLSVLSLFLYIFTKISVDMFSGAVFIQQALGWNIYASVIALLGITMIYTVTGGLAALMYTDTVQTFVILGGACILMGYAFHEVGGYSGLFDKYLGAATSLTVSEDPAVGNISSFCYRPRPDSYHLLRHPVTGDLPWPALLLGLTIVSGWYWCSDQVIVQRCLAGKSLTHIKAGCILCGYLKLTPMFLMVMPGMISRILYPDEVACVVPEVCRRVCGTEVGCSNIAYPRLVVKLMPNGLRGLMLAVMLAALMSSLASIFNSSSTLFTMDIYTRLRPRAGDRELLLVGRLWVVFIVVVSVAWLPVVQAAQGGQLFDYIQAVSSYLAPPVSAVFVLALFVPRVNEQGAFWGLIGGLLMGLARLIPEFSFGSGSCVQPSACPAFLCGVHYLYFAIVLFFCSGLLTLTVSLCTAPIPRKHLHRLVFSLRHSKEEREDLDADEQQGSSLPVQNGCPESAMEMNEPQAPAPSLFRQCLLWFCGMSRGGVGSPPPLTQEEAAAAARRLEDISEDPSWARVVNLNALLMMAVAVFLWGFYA
In words: Inhibition of human SGLT2 expressed in CHO cells by methyl-alpha-D-glucopyranoside assay. The data set is classed as cell-based.

SMILES strings stand for the structures. The source made the active and inactive calls. The rule behind the calls is not given here.

Consider `CCOc1ccc(Cc2cc([C@@H]3O[C@H](CO)[C@@H](O)[C@H](O)[C@H]3O)ccc2Cl)cc1` [DAPAGLIFLOZIN], for which the highest level in [1] (Cmax) was 1300 ng/mL. Besides, the AUC(0-inf) in data set [2] came to 3010 ng·h/mL; in [5] it was 13300 ng·h/mL. Further, the half-life in data set [3] was 174 min. The Tmax came to 4.8 min in data set [4] and 40.2 min in data set [6]. In [7], this molecule returned a bioavailability of 88.4%.

As to `CCCc1ccc(Cc2cc([C@@H]3O[C@H](CO)[C@@H](O)[C@H](O)[C@H]3O)c3c(c2Cl)OCC3)cc1`, in data set [8], half-maximal inhibition (IC50) required 1.37 µM. Further, the Ratio IC50 in data set [9] is 1170.

`OC[C@H]1O[C@@H](c2cc(Cc3ccc(C4CC4)cc3)c(Cl)c3c2CCO3)[C@H](O)[C@@H](O)[C@@H]1O` [ENAVOGLIFLOZIN]: it took 0.359 µM to reach half-maximal inhibition in data set [8] (IC50). The Ratio IC50 in [9] stood at 780. Further, the values for the half-life in data set [10], in [3] and in data set [17] were 103 min, 276 min and 294 min, respectively. The outcome in [11], in data set [12], in data set [13], in data set [14] and in data set [15] was Active. The values for the Cmax in data set [1] and in data set [16] were 3300 ng/mL and 2340 ng/mL, respectively. Moreover, the AUC(0-inf) in data set [2] turned out to be 4180 ng·h/mL; in [5], 16200 ng·h/mL. In addition, the Tmax in data set [4] was determined as 4.8 min; in data set [6] it was 15 min. The bioavailability in data set [7] was found to be 77.4%.

`Cc1ccc(Cc2cc([C@@H]3O[C@H](CO)[C@@H](O)[C@H](O)[C@H]3O)c3c(c2Cl)OCC3)cc1`: the IC50 in [18] was found to be 0.00144 µM.

On to `COc1ccc(Cc2cc([C@@H]3O[C@H](CO)[C@@H](O)[C@H](O)[C@H]3O)c3c(c2Cl)CCO3)cc1`, for which, in data set [9], the Ratio IC50 stood at 20. The half-life in [10] is 42.5 min.

Regarding `COc1ccc(Cc2cc([C@@H]3O[C@H](CO)[C@@H](O)[C@H](O)[C@H]3O)c3c(c2Cl)CCCO3)cc1`, the Ratio IC50 in [9] came to 17. In addition, the half-life in data set [10] worked out at 37.6 min.

With `CCOc1ccc(Cc2cc([C@@H]3O[C@H](CO)[C@@H](O)[C@H](O)[C@H]3O)c3c(c2Cl)OCC3)cc1`, in [8], the IC50 is 2.14 µM. The Ratio IC50 in data set [9] amounted to 1410. Moreover, the half-life in [10] was determined as 111 min.

For the molecule `COc1ccc(Cc2cc([C@@H]3O[C@H](CO)[C@@H](O)[C@H](O)[C@H]3O)c3c(c2Cl)CCC3)cc1`, in data set [10], the half-life is 30.9 min.

For `CCCOc1ccc(Cc2cc([C@@H]3O[C@H](CO)[C@@H](O)[C@H](O)[C@H]3O)c3c(c2Cl)OCC3)cc1`, half-maximal inhibition in data set [8] (IC50) required 6.28 µM. In addition, in [9], the Ratio IC50 was found to be 5150.

On to `COc1ccc(Cc2cc([C@@H]3O[C@H](CO)[C@@H](O)[C@H](O)[C@H]3O)c3c(c2Br)CCC3)cc1`, for which the Ratio IC50 in [9] came out at 35.

The molecule `CCc1ccc(Cc2cc([C@@H]3O[C@H](CO)[C@@H](O)[C@H](O)[C@H]3O)c3c(c2Cl)OCC3)cc1` displayed an IC50 in data set [8] of 0.556 µM. For the same molecule, the Ratio IC50 in [9] turned out to be 772. In addition, the half-life in data set [10] was determined as 44.5 min.

`CC(C)c1ccc(Cc2cc([C@@H]3O[C@H](CO)[C@@H](O)[C@H](O)[C@H]3O)c3c(c2Cl)OCC3)cc1` had an IC50 in data set [8] of 4.94 µM.

`COc1ccc(Cc2cc([C@@H]3O[C@H](CO)[C@@H](O)[C@H](O)[C@H]3O)c3c(c2Cl)OCC3)cc1` showed an IC50 in [8] of 0.4 µM. In addition, the Ratio IC50 in data set [9] worked out at 261. Further, the half-life in [10] was over 120 min.

Turning to `COc1ccc(Cc2cc([C@@H]3O[C@H](CO)[C@@H](O)[C@H](O)[C@H]3O)c3c(c2C)CCC3)cc1`, the half-life in [10] was 20.3 min.

With `OC[C@H]1O[C@@H](c2cc(Cc3ccc(C4CCCC4)cc3)c(Cl)c3c2CCO3)[C@H](O)[C@@H](O)[C@@H]1O`, the IC50 in data set [8] turned out to be 9.93 µM. In addition, the Ratio IC50 in [9] amounted to 8560.

Regarding `C=Cc1ccc(Cc2cc([C@@H]3O[C@H](CO)[C@@H](O)[C@H](O)[C@H]3O)c3c(c2Cl)OCC3)cc1`, the Ratio IC50 in data set [9] amounted to 441. For the same molecule, the half-life in data set [10] is 57 min.

`COc1ccc(Cc2cc3c(c([C@@H]4O[C@H](CO)[C@@H](O)[C@H](O)[C@H]4O)c2)CCC3)cc1` came in with a 50% inhibitory concentration (IC50) in data set [18] of 0.00744 µM.
